Test results published in US6509002B1, “Diagnostic agent for diabetes” (priority 1997, dated 2003).

Test: ^13C breath test, intravenous administration (femoral vein), diabetic vs normal rats
Assay type: in vivo, rat
Excerpt: As test animals, male Sprague-Dawley strain (SD) neonatal rats were purchased from Nippon Charles River K. K. together with their lactating rats. […] Insulin secretion-deficient type diabetes was generated by administering streptozotocin (STZ) to neonatal rats (“Saibokogaku (Cell Engineering)”, Extra Issue, medical Experiment Manual Series, Strategy for Study of Diabetes, edited by Susumu Seino and Yoshikazu Oka, published by Shujunsha Co., Japan). STZ was subcutaneously administered to 2-day-old rats at a dose of 90 mg/kg. […] Two days after the administration, blood was collected by cardiac puncture, and the casual blood sugar level of each rat was measured with Terumo […] (blood sugar measurement set). […] Breath tests were carried out according to the method as described in (2)-1 or (2)-2 below on diabetic rats prepared in (1) above (8-10-week-old) and normal rats (8-10-week-old). […] A blood sample was collected from the tail vein, and its sugar level was determined using Terumo […] (blood sugar measurement set). […] Fine Science Tools Inc.).

[1] = diabetic rats, 10 mg/kg from the femoral vein, Example 34
[2] = normal rats, 10 mg/kg from the femoral vein, Example 34
[3] = diabetic rats, 20 mg/kg from the femoral vein, Example 12
[4] = normal rats, 20 mg/kg from the femoral vein, Example 12
[5] = diabetic rats, 5 mg/kg from the femoral vein, Example 28
[6] = normal rats, 5 mg/kg from the femoral vein, Example 28
[7] = diabetic rats, 10 mg/kg from the femoral vein, Example 9
[8] = normal rats, 10 mg/kg from the femoral vein, Example 9
[9] = diabetic rats, 50 mg/kg from the femoral vein, Example 14
[10] = normal rats, 50 mg/kg from the femoral vein, Example 14
[11] = diabetic rats, 10 mg/kg from the femoral vein, Example 25
[12] = normal rats, 10 mg/kg from the femoral vein, Example 25
[13] = diabetic rats, 20 mg/kg from the femoral vein, Example 23
[14] = normal rats, 20 mg/kg from the femoral vein, Example 23
[15] = diabetic rats (n=2), 20 mg/kg from the femoral vein, Example 18
[16] = normal rats, 20 mg/kg from the femoral vein, Example 18
[17] = diabetic rats, 20 mg/kg from the femoral vein, Example 22
[18] = normal rats, 20 mg/kg from the femoral vein, Example 22
[19] = diabetic rats, 20 mg/kg from the femoral vein, Example 8
[20] = normal rats, 20 mg/kg from the femoral vein, Example 8
[21] = diabetic rats, 50 mg/kg, printed as administered orally from the femoral vein, Example 19
[22] = normal rats, 50 mg/kg, printed as administered orally from the femoral vein, Example 19
[23] = diabetic rats, 30 mg/kg from the femoral vein, Example 32
[24] = normal rats, 30 mg/kg from the femoral vein, Example 32
[25] = diabetic rats, 70 mg/kg from the femoral vein, Example 30
[26] = normal rats, 70 mg/kg from the femoral vein, Example 30
[27] = diabetic rats, 50 mg/kg from the femoral vein, Example 31
[28] = normal rats, 50 mg/kg from the femoral vein, Example 31
[29] = diabetic rats, 20 mg/kg from the femoral vein, Example 21
[30] = normal rats, 20 mg/kg from the femoral vein, Example 21

C[13C](=O)OCC(CO[13C](C)=O)O[13C](C)=O [1,1,1-^13C-triacetin]
slope from 6 to 10 min after the administration [1]: −6.26±1.50 ‰/4 min | time course of Δ^13C values (‰) [1]: increased sharply up to about 8 min after the administration, but thereafter decreased gradually up to 20 min | Δ^13C value (‰) at 4 min after the administration [1]: 41.97±2.79 ‰ | slope from 6 to 10 min after the administration [2]: −0.83±0.90 ‰/4 min | time course of Δ^13C values (‰) [2]: continued increasing up to 20 min | Δ^13C value (‰) at 4 min after the administration [2]: 27.29±2.31 ‰

Cl.NCCC[13C@H](N)[13C](=O)O [1,2-^13C-ornithine hydrochloride]
slope from 2 to 7 min after the administration [3]: 87.79±12.93 ‰/5 min | time course of Δ^13C values (‰) [3]: increased up to about 14 min after the administration, and thereafter remained at an almost constant level up to 20 min | Δ^13C value (‰) at 10 min after the administration [3]: 155.70±17.99 ‰ | slope from 2 to 7 min after the administration [4]: 53.56±4.72 ‰/5 min | time course of Δ^13C values (‰) [4]: continued increasing up to 20 min | Δ^13C value (‰) at 10 min after the administration [4]: 100.71±5.97 ‰

O=C(O)CC(O)(C[13C](=O)O)[13C](=O)O (centres unmarked) [1,6-^13C-citric acid]
slope from 10 to 14 min after the administration [5]: −10.45±1.30 ‰/4 min | Δ^13C value (‰) at 20 min after the administration [5]: 54.38±3.34 ‰ | slope from 10 to 14 min after the administration [6]: −5.81±0.92 ‰/4 min | Δ^13C value (‰) at 20 min after the administration [6]: 67.49±1.82 ‰

C[C@H](N)[13C](=O)O [1-^13C-alanine]
slope from 5 to 15 min after the administration [7]: −52.09±19.38 ‰/10 min | time course of Δ^13C values (‰) [7]: sharply increased up to 4 min after the administration of 1-^13C-alanine, but thereafter decreased gradually up to 20 min | Δ^13C value (‰) at 10 min after the administration [7]: 161.35±6.670 ‰ | slope from 5 to 15 min after the administration [8]: −18.12±7.28 ‰/10 min | time course of Δ^13C values (‰) [8]: sharply increased up to 4 min after the administration of 1-^13C-alanine, but thereafter decreased gradually up to 20 min | Δ^13C value (‰) at 10 min after the administration [8]: 132.16±3.53 ‰

N=C(N)NCCC[C@H](N)[13C](=O)O [1-^13C-arginine]
slope from 2 to 7 min after the administration [9]: 146.90±18.97 ‰/5 min | time course of Δ^13C values (‰) [9]: increased up to about 12 min after the administration, but thereafter decreased gradually up to 20 min | Δ^13C value (‰) at 10 min after the administration [9]: 192.40±30.23 ‰ | slope from 2 to 7 min after the administration [10]: 75.02±10.01 ‰/5 min | time course of Δ^13C values (‰) [10]: continued increasing up to 20 min | Δ^13C value (‰) at 10 min after the administration [10]: 111.68±14.15 ‰

N[C@@H](CC(=O)O)[13C](=O)O [1-^13C-aspartic acid]
slope from 3 to 8 min after the administration [11]: −53.79±11.42 ‰/5 min | time course of Δ^13C values (‰) [11]: increased sharply up to about 2 min after the administration of 1-^13C-aspartic acid, but thereafter decreased gradually up to 20 min | Δ^13C value (‰) at 3 min after the administration [11]: 172.66±8.65 ‰ | slope from 3 to 8 min after the administration [12]: −8.13±10.84 ‰/5 min | time course of Δ^13C values (‰) [12]: increased sharply up to about 2 min after the administration of 1-^13C-aspartic acid, but thereafter decreased gradually up to 20 min | Δ^13C value (‰) at 3 min after the administration [12]: 126.56±13.45 ‰

N[C@@H](CS)[13C](=O)O [1-^13C-cysteine]
slope from 1 to 2 min after the administration [13]: 38.50±2.33 ‰/min | Δ^13C value (‰) at 2 min after the administration [13]: 42.87±2.09 ‰ | slope from 1 to 2 min after the administration [14]: 65.72±10.66 ‰/min | Δ^13C value (‰) at 2 min after the administration [14]: 78.97±13.98 ‰

O=C([13CH2]O)[C@@H](O)[C@H](O)[C@H](O)CO [1-^13C-fructose]
time course of Δ^13C values (‰) (rat, in vivo, 100 mg/kg): continued increasing up to 20 min

O=[13CH][C@H](O)[C@@H](O)[C@@H](O)[C@H](O)CO [1-^13C-galactose]
time course of Δ^13C values (‰) (rat, in vivo, 100 mg/kg): continued increasing up to 30 min

N[C@@H](CCC(=O)O)[13C](=O)O [1-^13C-glutamic acid]
time course of Δ^13C values (‰) (rat, in vivo, 10 mg/kg): increased sharply up to about 4 min after the administration of 1-^13C-glutamic acid, but thereafter decreased gradually up to 20 min

NC(=O)CC[C@H](N)[13C](=O)O [1-^13C-glutamine]
slope from 1 to 2 min after the administration [15]: 105.59 ‰/min | Δ^13C value (‰) at 5 min after the administration [15]: 168.18 ‰ | time course of Δ^13C values (‰) (diabetic rats, 20 mg/kg from the femoral vein, Example 18): increased sharply up to about 3 min after the administration, but thereafter decreased gradually up to 20 min | slope from 1 to 2 min after the administration [16]: 69.88±11.51 ‰/min | time course of Δ^13C values (‰) [16]: increased sharply up to about 3 min after the administration of 1-^13C-glutamine, and thereafter increased gradually up to 20 min | Δ^13C value (‰) at 5 min after the administration [16]: 107.17±15.42 ‰

NC[13C](=O)O [1-^13C-glycine]
time course of Δ^13C values (‰) [17]: increased sharply up to about 5 min after the administration, but thereafter decreased gradually up to 20 min | Δ^13C value (‰) at 7 min after the administration [17]: 156.62±10.83 ‰ | time course of Δ^13C values (‰) [18]: increased sharply up to about 5 min after the administration of 1-^13C-glycine, remained at an almost constant level up to about 12 min, but thereafter decreased gradually up to 20 min | Δ^13C value (‰) at 7 min after the administration [18]: 119.06±12.19 ‰

CC[C@H](C)[C@H](N)[13C](=O)O [1-^13C-isoleucine]
slope from 2 to 5 min after the administration [19]: 56.21±2.09 ‰/3 min | time course of Δ^13C values (‰) [19]: increased sharply up to about 9 min after the administration, but thereafter remained at an almost constant level up to 20 min | Δ^13C value (‰) at 5 min after the administration [19]: 83.92±5.53 ‰ | slope from 2 to 5 min after the administration [20]: 33.21±2.44 ‰/3 min | time course of Δ^13C values (‰) [20]: continued increasing up to 20 min | Δ^13C value (‰) at 5 min after the administration [20]: 46.98±3.24 ‰

CC(C)C[C@H](N)[13C](=O)O [1-^13C-leucine]
Δ^13C value (‰) at 5 min after the administration (diabetic rats (n=2), 10 mg/kg from the femoral vein, Example 24): 52.89±10.83 ‰ | Δ^13C value (‰) at 5 min after the administration (normal rats, 10 mg/kg from the femoral vein, Example 24): 42.56±2.43 ‰

Cl.NCCCC[C@H](N)[13C](=O)O [1-^13C-lysine hydrochloride]
slope from 15 to 20 min after the administration [21]: −26.64±5.36 ‰/5 min | time course of Δ^13C values (‰) [21]: increased up to about 10 min after the administration, but thereafter decreased gradually up to 20 min | Δ^13C value (‰) at 8 min after the administration [21]: 181.53±23.82 ‰ | slope from 15 to 20 min after the administration [22]: −4.58±6.91 ‰/5 min | time course of Δ^13C values (‰) [22]: increased up to about 11 min after the administration of 1-^13C-lysine hydrochloride, and thereafter remained at an almost constant level up to 20 min | Δ^13C value (‰) at 8 min after the administration [22]: 96.95±27.48 ‰

CCCCCCC[13C](=O)O [1-^13C-octanoic acid]
slope from 10 to 20 min after the administration [23]: −20.55±7.75 ‰/10 min | time course of Δ^13C values (‰) [23]: increased sharply up to about 5 min after the administration, but thereafter decreased gradually up to 20 min | slope from 10 to 20 min after the administration [24]: −4.76±4.41 ‰/10 min | time course of Δ^13C values (‰) [24]: increased sharply up to about 5 min after the administration of 1-^13C-octanoic acid, and thereafter remained at an almost constant level up to 20 min

CCCCCCCC/C=C\CCCCCCC[13C](=O)O [1-^13C-oleic acid]
slope from 10 to 20 min after the administration [25]: −12.79±3.72 ‰/10 min | time course of Δ^13C values (‰) [25]: increased sharply up to about 8 min after the administration, but thereafter decreased gradually up to 20 min | Δ^13C value (‰) at 8 min after the administration [25]: 132.93±7.09 ‰ | slope from 10 to 20 min after the administration [26]: 13.61±4.58 ‰/10 min | time course of Δ^13C values (‰) [26]: continued increasing up to 20 min | Δ^13C value (‰) at 8 min after the administration [26]: 86.51±14.72 ‰

CCCCCCCCCCCCCCC[13C](=O)O [1-^13C-palmitic acid]
slope from 10 to 20 min after the administration [27]: −4.40±2.21 ‰/10 min | time course of Δ^13C values (‰) [27]: increased sharply up to about 5 min after the administration, but thereafter decreased gradually up to 20 min | slope from 10 to 20 min after the administration [28]: 1.43±1.33 ‰/10 min | time course of Δ^13C values (‰) [28]: continued increasing up to 20 min

O=[13C](O)C1CCCN1 (centres unmarked) [1-^13C-proline]
time course of Δ^13C values (‰) [29]: increased up to about 9 min after the administration of 1-^13C-proline, but thereafter decreased gradually up to 20 min | Δ^13C value (‰) at 20 min after the administration [29]: 115.77±6.61 ‰ | time course of Δ^13C values (‰) [30]: increased up to about 9 min after the administration of 1-^13C-proline, but thereafter decreased gradually up to 20 min | Δ^13C value (‰) at 20 min after the administration [30]: 92.27±11.10 ‰
